From ChEMBL document CHEMBL5126658, “Talaropeptins A and B, Tripeptides with an N-trans-Cinnamoyl Moiety from the Marine-Derived Fungus Talaromyces purpureogenus CX11” (2022)
In brackets after ≈: the same amount, converted by molar mass.

Tests used:
Format in all cases: functional
Cryptococcus neoformans = assay: Antifungal activity against Cryptococcus neoformans GOYJ11988 assessed as fungal growth inhibition incubated for 24 hrs by serial dilution method
Candida albicans = assay: Antifungal activity against Candida albicans SC5314 assessed as fungal growth inhibition incubated for 24 hrs by serial dilution method
Fusarium oxysporum = assay: Antifungal activity against Fusarium oxysporum ATCC 28856 assessed as fungal growth inhibition incubated for 24 hrs by serial dilution method

MIC (Cryptococcus neoformans) | MIC (Candida albicans) | MIC (Fusarium oxysporum) | Structure (SMILES)
80 mg/L (≈ 208 µM) | 40 mg/L (≈ 104 µM) | 25 mg/L (≈ 64.9 µM) | C[C@@H]1C(=O)N2CCC[C@H]2[C@]2(O)O[C@@](C)(NC(=O)/C=C/c3ccccc3)C(=O)N12
80 mg/L (≈ 199 µM) | 40 mg/L (≈ 99.6 µM) | 12.5 mg/L (≈ 31.1 µM) | C[C@@H]1C(=O)N2CCC[C@H]2[C@]2(O)O[C@@](CO)(NC(=O)/C=C/c3ccccc3)C(=O)N12
